Measurements from paper PMC5623949, “Exploiting the 2-Amino-1,3,4-thiadiazole Scaffold To Inhibit Trypanosoma brucei Pteridine Reductase in Support of Early-Stage Drug Discovery” (ACS Omega, 2017).
“Also recorded” adds a separate entry of the source.

Legend:
[1] = target: CYP2D6 (Homo sapiens, UniProt P10635); experiment: in vitro; parameters: cytochrome P450 isoform inhibition
Protocol: (§1) Independent of the effect of any antiparasitic potential of compounds, they were evaluated using a panel of early-toxicity assays comprising cytotoxicity (A549, human lung adenocarcinoma epithelial cell line and WI-38, human lung fibroblasts), mitochondrial toxicity (786-O, human renal carcinoma cell line), hERG inhibition,[31] cytochrome P450 inhibition (CYP1A2, CYP2C9, CYP2C19, CYP2D6, and CYP3A4),[31] and Aurora B kinase inhibition. […] For the two compounds active against TbPTR1 (4m and 4o), IC50 against hERG, cytochrome P450, and mitochondrial toxicity were determined (reported in Supporting Information). We observed that the dose of compounds 4m, 4o, 4c, and 3k was 4 μM in the potentiation assays. […] In the case of hERG, CYP2D6, CYP2A9, CYP2C19, and mitochondrial toxicity, there is a selectivity index of around 3–4 fold, thus showing an acceptable profile.

[2] = target: CYP3A4 (Homo sapiens, UniProt P08684); experiment: in vitro; parameters: cytochrome P450 isoform inhibition
Protocol: as §1

[3] = target: CYP2C9 (Homo sapiens, UniProt P11712); experiment: in vitro; parameters: cytochrome P450 isoform inhibition
Protocol: as §1

[4] = target: CYP2C19 (Homo sapiens, UniProt P33261); experiment: in vitro; parameters: cytochrome P450 isoform inhibition
Protocol: as §1

[5] = target: T1, CYP1A2 (Homo sapiens, UniProt P05177); experiment: in vitro; parameters: cytochrome P450 isoform inhibition
T1 sequence (P05177 1-516): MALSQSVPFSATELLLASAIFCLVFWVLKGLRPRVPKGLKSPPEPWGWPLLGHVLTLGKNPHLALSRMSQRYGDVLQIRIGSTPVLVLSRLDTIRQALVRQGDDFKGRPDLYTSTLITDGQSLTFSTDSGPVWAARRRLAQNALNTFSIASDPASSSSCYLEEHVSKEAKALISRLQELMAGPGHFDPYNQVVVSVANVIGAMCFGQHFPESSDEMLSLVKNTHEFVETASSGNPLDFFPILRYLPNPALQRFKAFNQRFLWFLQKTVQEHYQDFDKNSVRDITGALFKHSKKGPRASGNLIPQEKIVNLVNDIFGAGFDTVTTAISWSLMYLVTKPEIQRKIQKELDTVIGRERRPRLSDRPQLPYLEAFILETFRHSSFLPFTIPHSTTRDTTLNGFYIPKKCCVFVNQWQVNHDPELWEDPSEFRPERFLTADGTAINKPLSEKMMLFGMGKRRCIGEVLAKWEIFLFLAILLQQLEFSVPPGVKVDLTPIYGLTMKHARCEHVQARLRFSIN
Protocol: as §1

[6] = target: T2, TbDHFR (Trypanosoma brucei brucei, UniProt Q27783); experiment: TbDHFR enzyme inhibition (spectrophotometric); format: biochemical; settings: 100 μM; Table S3
T2 construct: made in house

[7] = test system: T. b. brucei Lister 427 bloodstream forms; experiment: T. brucei resazurin assay for MTX potentiation and folic acid supplementation; format: cell-based, Trypanosoma brucei brucei; settings: for antiparasitic effect as single agent: compound alone, 4m at 50 μM
Protocol: T. b. brucei Lister 427 bloodstream forms were grown at 37 °C and 5% CO2 in a complete HMI-9 medium, supplemented with 10% FCS and 100 UI/mL of penicillin/streptomycin. The cultures were diluted until a cell density of 2 × 10^6/mL was reached. The efficacy of compounds against T. brucei bloodstream forms was evaluated using a modified resazurin-based assay previously described.[46] The compounds were prepared from a stock solution in 10 mM DMSO and diluted in HMI-9 (supplemented or not with 1 mM folic acid, Sigma-Aldrich) to 40 μM work solution (0.4% DMSO, with the DMSO limit in the assay being 0.4%). […] The 40 μM work solution was then used to perform serial dilutions (1:2) in a 96-well plate. Upon compound addition to the test plate, the mid-log bloodstream forms were added (100 μL) in complete HMI-9 medium (supplemented or not with 1 mM folic acid) at a final cell density of 1 × 10^4/mL in a final well volume of 200 μL with a maximum DMSO concentration of 0.2%. Following incubation for 72 h at 37 °C and 5% CO2, 20 μL of 0.5 mM resazurin solution was added, and the plates were incubated further for 4 h under the same conditions. Fluorescence was measured at 540 and 620 nm excitation and emission wavelengths, respectively, using a Synergy 2 multi-mode reader (BioTek). […] This approach requires the use of both compounds at their EC50 potency in the combination, which is impossible to be detected for compound 4m having no intrinsic antiparasitic activity as a single agent at the tested concentrations. Folic acid (1 mM) was chosen on the basis of the following experiments. The stock solution of 10 mM folic acid dissolved in NaOH solution was used to perform a dose–response curve with folic acid alone to evaluate the maximum amount we could use without compromising parasite growth due to pH modification of the media. […] The IC50 values reported are the averages of the results obtained in at least two independent experiments. Pentamidine was used as the reference drug and internal control in all assays.

Chain of CYP2C9 (P11712 whole entry, canonical isoform): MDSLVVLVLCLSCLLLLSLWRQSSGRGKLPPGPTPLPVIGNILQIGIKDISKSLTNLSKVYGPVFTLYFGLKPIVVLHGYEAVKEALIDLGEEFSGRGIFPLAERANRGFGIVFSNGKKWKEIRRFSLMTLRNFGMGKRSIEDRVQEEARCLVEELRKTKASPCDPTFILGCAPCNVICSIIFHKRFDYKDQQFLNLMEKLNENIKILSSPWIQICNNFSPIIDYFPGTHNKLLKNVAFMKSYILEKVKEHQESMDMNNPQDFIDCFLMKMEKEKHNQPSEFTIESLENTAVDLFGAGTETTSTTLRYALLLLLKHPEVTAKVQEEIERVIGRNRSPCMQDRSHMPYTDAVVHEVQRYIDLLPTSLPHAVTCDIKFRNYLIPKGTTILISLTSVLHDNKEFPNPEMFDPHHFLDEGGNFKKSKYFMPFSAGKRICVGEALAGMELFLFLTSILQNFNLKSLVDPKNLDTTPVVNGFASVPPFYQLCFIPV
Chain of CYP2C19 (P33261 whole entry, canonical isoform): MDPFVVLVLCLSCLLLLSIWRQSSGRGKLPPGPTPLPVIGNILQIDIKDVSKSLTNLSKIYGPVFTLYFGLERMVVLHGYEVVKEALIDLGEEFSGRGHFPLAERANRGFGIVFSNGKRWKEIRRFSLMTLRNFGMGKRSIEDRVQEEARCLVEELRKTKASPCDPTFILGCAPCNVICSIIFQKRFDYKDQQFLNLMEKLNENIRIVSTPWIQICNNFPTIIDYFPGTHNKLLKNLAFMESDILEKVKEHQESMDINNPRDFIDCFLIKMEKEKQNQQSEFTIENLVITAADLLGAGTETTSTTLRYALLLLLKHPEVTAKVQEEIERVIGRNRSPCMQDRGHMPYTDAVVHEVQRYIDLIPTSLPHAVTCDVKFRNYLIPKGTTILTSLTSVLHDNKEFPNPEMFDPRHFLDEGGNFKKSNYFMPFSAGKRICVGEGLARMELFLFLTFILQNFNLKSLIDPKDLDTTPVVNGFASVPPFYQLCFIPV
T2 sequence (Q27783 whole entry): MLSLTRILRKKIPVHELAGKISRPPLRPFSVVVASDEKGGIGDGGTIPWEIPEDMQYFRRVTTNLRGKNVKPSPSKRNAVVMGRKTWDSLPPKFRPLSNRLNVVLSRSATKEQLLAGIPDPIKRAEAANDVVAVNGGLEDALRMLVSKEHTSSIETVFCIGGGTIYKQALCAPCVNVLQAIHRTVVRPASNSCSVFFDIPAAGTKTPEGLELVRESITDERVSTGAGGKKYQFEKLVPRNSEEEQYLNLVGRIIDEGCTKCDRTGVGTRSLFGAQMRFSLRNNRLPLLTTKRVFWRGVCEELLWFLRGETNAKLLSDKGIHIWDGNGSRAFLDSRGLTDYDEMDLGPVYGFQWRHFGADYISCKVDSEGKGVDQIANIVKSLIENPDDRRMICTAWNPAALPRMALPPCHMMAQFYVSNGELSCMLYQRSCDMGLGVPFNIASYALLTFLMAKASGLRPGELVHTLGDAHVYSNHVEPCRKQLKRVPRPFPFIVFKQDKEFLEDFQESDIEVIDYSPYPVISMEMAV
Chain of CYP3A4 (P08684 whole entry, canonical isoform): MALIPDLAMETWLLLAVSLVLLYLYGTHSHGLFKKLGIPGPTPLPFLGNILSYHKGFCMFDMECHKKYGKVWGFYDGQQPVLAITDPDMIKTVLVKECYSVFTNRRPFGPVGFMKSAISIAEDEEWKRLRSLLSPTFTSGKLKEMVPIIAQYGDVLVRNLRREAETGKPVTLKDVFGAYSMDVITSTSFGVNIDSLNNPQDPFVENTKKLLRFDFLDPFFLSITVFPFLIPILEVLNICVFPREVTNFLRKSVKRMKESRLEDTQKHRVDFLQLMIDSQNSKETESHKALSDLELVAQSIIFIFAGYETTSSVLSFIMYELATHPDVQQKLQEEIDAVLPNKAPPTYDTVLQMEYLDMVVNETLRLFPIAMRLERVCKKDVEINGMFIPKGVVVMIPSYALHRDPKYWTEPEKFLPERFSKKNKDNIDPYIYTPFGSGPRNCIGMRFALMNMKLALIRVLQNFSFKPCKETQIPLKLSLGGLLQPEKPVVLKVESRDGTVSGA
Chain of CYP2D6 (P10635 whole entry, canonical isoform): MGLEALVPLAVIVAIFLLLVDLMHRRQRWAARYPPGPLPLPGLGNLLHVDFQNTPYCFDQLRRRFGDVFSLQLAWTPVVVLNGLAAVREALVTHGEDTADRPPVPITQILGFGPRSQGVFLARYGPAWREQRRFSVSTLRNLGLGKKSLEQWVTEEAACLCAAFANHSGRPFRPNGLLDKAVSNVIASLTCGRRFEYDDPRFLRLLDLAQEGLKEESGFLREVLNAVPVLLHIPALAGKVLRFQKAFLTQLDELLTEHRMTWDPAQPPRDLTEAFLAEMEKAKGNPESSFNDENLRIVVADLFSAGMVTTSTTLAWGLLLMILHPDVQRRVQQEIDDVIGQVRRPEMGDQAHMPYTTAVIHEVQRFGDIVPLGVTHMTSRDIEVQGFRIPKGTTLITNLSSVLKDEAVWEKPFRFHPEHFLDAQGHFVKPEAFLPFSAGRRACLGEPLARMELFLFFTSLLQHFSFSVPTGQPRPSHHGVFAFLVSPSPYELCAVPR

SMILES | inhibition at 10 µM [1] | inhibition at 10 µM [2] | inhibition at 10 µM [3] | inhibition at 10 µM [4] | inhibition at 10 µM [5] | inhibitory activity against TbDHFR [6] | antiparasitic effect as single agent [7] | effect of 1 mM folic acid on T. b. brucei growth inhibition ([7]; 1 mM folic acid, MTX alone or equimolar 4m + MTX)
Nc1nnc(NCCc2cccs2)s1 [4o, N2G(2G(thiophenG2Gyl)ethyl)G1,3,4GthiadiazoleG2,5Gdiamine] | 81.2 ± 1.2% | 30.4 ± 4.5% | 3.1 ± 4.8% | -20.9 ± 6.1% | -2.9 ± 3.4% | neither 4m nor 4o is able to inhibit | low T. brucei cell inhibitory activity | 
Nc1nnc(NCc2ccc(-c3ccccc3)cc2)s1 [4m] | 53.6 ± 0.6% | 25.6 ± 6.3% | 46.9 ± 4.4% | 22.5 ± 4.7% | 60.4 ± 4.5% | neither 4m nor 4o is able to inhibit | did not show any significant antiparasitic effect | reversed; also recorded: rescue cell growth
